According to PMC5515508, “Benzene Probes in Molecular Dynamics Simulations Reveal Novel Binding Sites for Ligand Design” (The Journal of Physical Chemistry Letters, 2016):
Bridge positions count the residues as written; N and C are the ends. Square brackets hold non-standard residues; d marks the D form. Peptide text beside a SMILES is read from it. R5 = C=CCCC[C@@](C)(N)C(=O)O

Target: T1, MDM2 (1-125) (Homo sapiens, UniProt Q00987)
T1 construct: cleaved MDM2 (1-125) was purified to ~90% purity; GST (N, cleaved yes); made in house; host or cells: Escherichia coli BL21(DE3)
Assay: Competitive fluorescence polarization titration against FAM-labeled 12/1 peptide
Assay type: binding
Conditions: read-out: Dissociation constant (Kd)
Description: [P] is the protein concentration (MDM2), [L] is the labeled peptide concentration, r is the
Apparent Kd values were determined for a variety of molecules via competitive fluorescence […]
triplicate. Curve-fitting was carried out using Prism 4.0 (GraphPad).

T1 sequence (Q00987 1-125): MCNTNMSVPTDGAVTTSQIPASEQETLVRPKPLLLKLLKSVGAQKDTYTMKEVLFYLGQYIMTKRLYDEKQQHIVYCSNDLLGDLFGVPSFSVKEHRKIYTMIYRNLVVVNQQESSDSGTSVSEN

| SMILES | Kd |
| --- | --- |
| CC(=O)N[C@H](C(=O)N[C@@H](CO)C(=O)N[C@@H](Cc1ccccc1)C(=O)N[C@]1(C)CCCC=CCCC[C@](C)(C(=O)N[C@@H](CC(C)C)C(=O)N[C@@H](CC(C)C)C(=O)N2CCC[C@H]2C(=O)N[C@@H](CCC(=O)O)C(=O)N[C@@H](CC(N)=O)C(=O)N[C@@H](Cc2ccccc2)C(N)=O)NC(=O)[C@H](Cc2c[nH]c3ccccc23)NC(=O)[C@H](Cc2ccc(O)cc2)NC(=O)[C@H](CCC(=O)O)NC1=O)[C@@H](C)O [YS-1] (Ac-TSF[R5]EYW[R5]LLPENF-NH2; staple 4-8) | 9.9 ± 1.5 nM |
| CC(=O)N[C@H](C(=O)N[C@@H](CO)C(=O)N[C@@H](Cc1ccccc1)C(=O)N[C@]1(C)CCCC=CCCC[C@](C)(C(=O)N[C@@H](CC(C)C)C(=O)N[C@@H](CC(C)C)C(=O)N2CCC[C@H]2C(=O)N[C@@H](CCC(=O)O)C(=O)N[C@@H](CC(N)=O)C(=O)N[C@@H](Cc2ccc(O)cc2)C(N)=O)NC(=O)[C@H](Cc2c[nH]c3ccccc23)NC(=O)[C@H](Cc2ccc(O)cc2)NC(=O)[C@H](CCC(=O)O)NC1=O)[C@@H](C)O [YS-2] (Ac-TSF[R5]EYW[R5]LLPENY-NH2; staple 4-8) | 7.4 ± 1.5 nM |
| CC(=O)N[C@H](C(=O)N[C@@H](CO)C(=O)N[C@@H](Cc1ccccc1)C(=O)N[C@]1(C)CCCC=CCCC[C@](C)(C(=O)N[C@@H](CC(C)C)C(=O)N[C@@H](CC(C)C)C(=O)N2CCC[C@H]2C(=O)N[C@@H](CCC(=O)O)C(=O)N[C@@H](CC(N)=O)C(N)=O)NC(=O)[C@H](Cc2c[nH]c3ccccc23)NC(=O)[C@H](Cc2ccc(O)cc2)NC(=O)[C@H](CCC(=O)O)NC1=O)[C@@H](C)O [YS-3] (Ac-TSF[R5]EYW[R5]LLPEN-NH2; staple 4-8) | 36.1 ± 2.9 nM |
| CC(=O)N[C@H](C(=O)N[C@@H](CO)C(=O)N[C@@H](Cc1ccccc1)C(=O)N[C@]1(C)CCCC=CCCC[C@](C)(C(=O)N[C@@H](CC(C)C)C(=O)N[C@@H](CC(C)C)C(=O)N2CCC[C@H]2C(=O)N[C@@H](CCC(=O)O)C(=O)N[C@@H](CC(N)=O)C(=O)N[C@@H](C)C(N)=O)NC(=O)[C@H](Cc2c[nH]c3ccccc23)NC(=O)[C@H](Cc2ccc(O)cc2)NC(=O)[C@H](CCC(=O)O)NC1=O)[C@@H](C)O [YS-4] (Ac-TSF[R5]EYW[R5]LLPENA-NH2; staple 4-8) | 27.7 ± 1.3 nM |
| CC(=O)N[C@H](C(=O)N[C@@H](CO)C(=O)N[C@@H](Cc1ccccc1)C(=O)N[C@]1(C)CCCC=CCCC[C@](C)(C(=O)N[C@@H](CC(C)C)C(=O)N[C@@H](CC(C)C)C(=O)N[C@@H](CO)C(=O)N[C@@H](CCC(=O)O)C(=O)N[C@@H](CC(N)=O)C(=O)N[C@@H](Cc2ccccc2)C(N)=O)NC(=O)[C@H](Cc2c[nH]c3ccccc23)NC(=O)[C@H](Cc2ccc(O)cc2)NC(=O)[C@H](CCC(=O)O)NC1=O)[C@@H](C)O [YS-5] (Ac-TSF[R5]EYW[R5]LLSENF-NH2; staple 4-8) | 11.6 ± 0.9 nM |
| CC(=O)N[C@H](C(=O)N[C@@H](CO)C(=O)N[C@@H](Cc1ccccc1)C(=O)N[C@]1(C)CCCC=CCCC[C@](C)(C(=O)N[C@@H](CC(C)C)C(=O)N[C@@H](CC(C)C)C(=O)N[C@@H](CO)C(=O)N[C@@H](CCC(=O)O)C(=O)N[C@@H](CC(N)=O)C(=O)N[C@@H](Cc2ccc(O)cc2)C(N)=O)NC(=O)[C@H](Cc2c[nH]c3ccccc23)NC(=O)[C@H](Cc2ccc(O)cc2)NC(=O)[C@H](CCC(=O)O)NC1=O)[C@@H](C)O [YS-6] (Ac-TSF[R5]EYW[R5]LLSENY-NH2; staple 4-8) | 8.8 ± 0.6 nM |
